Consider 2 compounds from patent US6436942B1, “Enantiomers of 1[(4-chloro-phenyl) phenylmethyl]-4-[(4-methylphenyl) sulfony]piperazine” (UCB, S.A., priority 1993, dated 2002).

Where a name gives a salt, the structure may show the parent alone.

The target of data set [1] is T1, rat cortex histamine H1 receptor (Rattus norvegicus, UniProt P31390).
T1 construct: the samples containing 0.5 mg of cortex membrane protein; from tissue; host or cells: cerebral cortex membranes of male Sprague-Dawley rats
The experiment in a line: Affinity towards the histamine H1 receptor ([3H]mepyramine competitive binding). As to conditions: cologarithm of Ki, mean ± deviation (n=2); [3H]mepyramine 4.5×10^−9 mole/l, rat cortex membranes. On the procedure: Cerebral cortexes from male Sprague-Dawley rats are homogenized in 2 ml per cortex of a 20 mM Tris-HCl buffer (pH 7.4) containing 250 mM sucrose. The homogenates are centrifuged at 30,000 g for 30 minutes at 4° C. and the centrifugation pellets are resuspended in the same fresh buffer and preserved in liquid nitrogen. […] The bound [^3H]mepyramine is separated from the free radioligand by rapid filtration of the sample through a Whatman GF/C filter, previously impregnated for at least 2 hours with a 0.1% solution of polyethyleneimine, in order to reduce the possibility of non-specific binding of the radioligand with other proteins. […] The radioactivity thereof is then measured using a β particle Tri-carb 1090 scintillation counter (Camberra-Packard, Belgium). Non-specific binding has been estimated in the presence of a 10 μM aqueous solution of cetirizine and represents 30% of the total binding. […] DE LEAN et al., Mol. Pharmacol., 21 (1982), 5-16) and their inhibition constants (Ki) are calculated by means of the CHENG and PRUSOFF equation (Y. C. CHENG and W. H. PRUSOFF, Biochem. Pharmacol., 22 (1973), 3099-3108). Table III below gives the values of pKi (cologarithm of Ki) calculated from Ki (mean value±deviation with respect to the mean (n=2)), for the compounds tested.

Data set [2] deals with mice. In words: Toxicity: lethal dose in mice after intraperitoneal injection. The class given is in vivo. The settings on record: dose causing death in 2 out of 3 mice.
In data set [3] the test system is isolated guinea pig trachea. The experiment in a line: Peripheral antihistaminic properties: inhibition of histamine-induced contraction of isolated guinea pig trachea. The settings on record: mean ± standard deviation, histamine-contracted guinea pig trachea. On the procedure:
Tracheas of Dunkin-Hartley guinea pigs of both sexes (weight: 250-500 g) are excised and cut into four fragments of three segments of cartilage each. These fragments are immersed in a Krebs-Heinseleit solution at 37° C. containing 10^−7 mole/l of atropine and 10^−5 mole/l of indomethacin and are stretched with a weight of 1 g. The solution is aerated with a current of oxygen containing 5% carbon dioxide. Each change in tension, is recorded with an isometric force indicator K 30 (from Hugo Sachs Elektronik) coupled to an amplifier and a Sanborn 7700 recorder (from Hewlett Packard). The preparation (i.e. trachea fragment) so obtained is allowed to stabilize for one hour during which the base line for the tension is readjusted if necessary.
After washing and stabilization, a cumulative curve showing the effects of histamine, as a function of its concentration (10^−6, 10^−5 and 10^−4 mole/l) is plotted as a control.
For the same preparation, four further cumulative curves showing the effects of histamine as a function of its concentration are then recorded at four increasing concentrations of each compound to be tested.
The compounds to be tested are incorporated in the medium five minutes before the histamine. Between each measurement, the preparations are washed at least four times with an interval of five minutes between each washing. Each compound is tested on at least 6 trachea fragments. When the last curve is plotted, additional concentrations of 3.2×10^−4 and 10^−3 mole/l of histamine are added in order to determine whether the antagonism is competitive or not.

T1 sequence (P31390 whole entry): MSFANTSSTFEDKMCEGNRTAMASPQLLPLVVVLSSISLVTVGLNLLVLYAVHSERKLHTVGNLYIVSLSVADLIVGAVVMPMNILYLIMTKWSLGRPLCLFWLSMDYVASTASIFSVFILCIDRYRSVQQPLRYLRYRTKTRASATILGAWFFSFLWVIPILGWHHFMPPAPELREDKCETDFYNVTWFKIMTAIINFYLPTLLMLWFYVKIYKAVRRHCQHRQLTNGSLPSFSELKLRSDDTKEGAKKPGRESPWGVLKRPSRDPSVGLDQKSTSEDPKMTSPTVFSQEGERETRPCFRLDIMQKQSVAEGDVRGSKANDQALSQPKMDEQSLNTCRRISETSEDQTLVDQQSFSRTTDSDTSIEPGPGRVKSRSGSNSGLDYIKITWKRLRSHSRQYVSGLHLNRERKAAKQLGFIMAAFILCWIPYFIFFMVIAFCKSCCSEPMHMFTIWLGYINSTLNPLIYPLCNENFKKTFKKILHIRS

Turning to `OCCOCCOCCN1CCN(C(c2ccccc2)c2ccc(Cl)cc2)CC1` (single isomer, unassigned) [I, levorotatory dihydrochloride of 2-[2-[2-[4-[(4-chlorophenyl)phenylmethyl]-1-piperazinyl]ethoxy]ethoxy]ethanol], the affinity in data set [1] corresponds to a Ki of 79.4 nM. In data set [2], this compound had a Lethal dose of 0.0001 mol/kg. Also, the pA2 in data set [3] (competitive inhibition) was found to be 6.5 ± 0.4.

`OCCOCCN1CCN(C(c2ccccc2)c2ccc(Cl)cc2)CC1` (single isomer, unassigned) [H, dextrorotatory dihydrochloride of 2-[2-[4-[(4-chlorophenyl)phenylmethyl]-1-piperazinyl]ethoxy]ethanol] showed an inhibitory constant (Ki) in data set [1] of 2 nM. For the same compound, in data set [2], the Lethal dose turned out to be 0.0006 mol/kg. For the same compound, the “pD2′” value in data set [3] (non-competitive inhibition) worked out at 6.7 ± 0.1.
